# Measurements: patent US6897228B2, “Pyridoxine and pyridoxal analogues: new uses” (Medicure International Inc., priority 2000, dated 2005)
# Columns and labels:
# [1] = tested on: male Wistar rats, LAD occlusion and reperfusion; assay: Rat cardiac ischemia reperfusion model; format: in vivo
# Description: Seventy-nine male Wistar rats (200-300 g, Tuck, Rayleigh, Essex, U.K.) were anesthetized with thiopentone sodium (Intraval®, 120 mg/kg i.p.; Rhone-Merrieux, Essex, U.K.). The rats were tracheotomized, intubated and ventilated with a Harvard ventilator (70 strokes/min, tidal volume: 8-10 ml/kg, inspiratory oxygen concentration: 30%). Body temperature was maintained at 38±1° C. The right carotid artery was cannulated and connected to a pressure transducer (Spectramed, P23XL) to monitor mean arterial blood pressure (MAP) and heart rate (HR), which were continuously recorded on a 4-channel Grass 7D polygraph recorder (Grass, Mass., U.S.A.). The right jugular vein was cannulated for the administration of drugs. Subsequently, a lateral thoracotomy was performed and the heart was suspended in a temporary pericardial cradle. A snare occluder was placed around the left anterior descending coronary artery (LAD). After completion of the surgical procedure the animals were allowed to stabilize for 30 min before LAD ligation. The coronary artery was occluded at time 0 by tightening of the occluder. After 25 min of acute myocardial ischemia, the occluder was re-opened to allow the reperfusion for 2 h. Following the 2 h reperfusion period, the coronary artery was re-occluded and Evans Blue dye (1 ml of 2% w/v) was injected into the left ventricle, via the right carotid artery cannula, to distinguish between perfused and non-perfused area at risk (AR) sections of the heart. The Evans Blue solution stains the perfused myocardium, while the occluded vascular bed remains uncolored. The animals were killed with an overdose of anesthetic and the heart excised. It was sectioned into slices of 3-4 mm, the right ventricular wall was removed, and the AR (pink) was separated from the non-ischemic (blue) area. The AR was cut into small pieces and incubated with p-nitroblue tetrazolium (NBT, 0.5 mg/ml) for 40 min at 37° C. In the presence of intact dehydrogenase enzyme systems (viable myocardium), nitro-blue tetrazolium (NBT) forms a dark blue formazan, whilst areas of necrosis lack dehydrogenase activity and therefore fail to stain. Pieces were separated according to staining and weighed to determine the infarct size as a percentage of the weight of the AR.
# The following experimental groups were studied: • (1) Sham-operation (no occlusion of the LAD) plus administration of saline (Sham-Saline, 1 ml/kg i.v. n=9). • (2) LAD-occlusion (25 min) and reperfusion (2 h) plus administration of saline (myocardial infarction (“MI”)-Saline; 1 ml/kg i.v. bolus, 5 min prior to LAD occlusion) (n=10). • (3) LAD-occlusion and reperfusion plus administration of XL (25 mg/kg i.v. bolus at 5 min prior to LAD occlusion) (n=10).
# All data were expressed as mean±s.e.mean of n observations, where n represented the number of animals studied. Infarct size was analyzed by 1-factorial ANOVA, followed by a Bonferroni's post hoc test for multiple comparisons. Hemodynamic data were analyzed by 2-way ANOVA followed by a Bonferroni's test. A P-value of less than 0.05 was considered to be statistically significant (when compared to Ml-Saline).
# [2] = tested on: Platelets from HIT patients; assay: Heparin-induced aggregation and ATP release of platelets from HIT patients; format: cell-based, human
# Description: XL was capable of inhibiting the aggregation of platelets drawn from patients known to have heparin induced thrombocytopenia (HIT). Platelets from HIT patients were challenged with 0.5 U/ml concentration of heparin in the presence and absence of drug. […] XL is useful as an antiplatelet treatment for HIT patients who cannot be administered heparin due to the immune reaction with heparin that leads to aggregation rather than thrombolysis.
# Platelets were drawn from HIT patients and challenged with heparin to a final concentration of 0.5 U/ml of low molecular weight heparin, in the presence and absence of the drug. […] ATP was detected in a lumi aggregometor (Chronolog Corp.). A luciferin-luciferase mixture was used to detect ATP release. The luciferin-luciferase mixture was previously calibrated to a known amount of ATP. Thus a spike in ATP release indicated platelet aggregation. As shown by the data, HIT patents have a large amplitude release when there is no XL compound present. When XL compound is present it inhibits this characteristic release of ATP.
# Low heparin is low molecular weight heparin and high heparin is unfractionated heparin. The presence of low molecular weight heparin will cause platelet aggregation. All samples were treated with a constant final concentration of heparin; 0.5 U/ml—low and 100 U/ml high. HIT causes platelet aggregation in the Low Concentration of Heparin only, as well as a ration of >5.0 when comparing the Low/High concentration of Heparin.
# [3] = 25 mg/kg i.v. bolus t = −5 mins, Baseline
# [4] = 25 mg/kg i.v. bolus, Occlusion 15 mins
# [5] = 25 mg/kg i.v. bolus, Occlusion 25 mins
# [6] = 25 mg/kg i.v. bolus, Reperfusion 60 mins
# [7] = 25 mg/kg i.v. bolus, Reperfusion 120 mins
structure (smiles),measurement,setting,value
Cc1ncc(CNc2ccc(-c3ccc(C(=N)N)cc3)cc2)c(CO)c1O [Compound XL],HR (heart rate),[1]; [3],443 ± 9 beats per min
same,MAP (mean arterial pressure),[1]; [3],121 ± 7 mmHg
same,PRI (pressure rate index),[1]; [3],54 ± 3 mmHg/min · 10^−3
same,infarct size (percentage of the area at risk),"[1]; 25 mg/kg i.v. bolus, 5 minutes before regional ischemia, P<0.05, MI-Saline 48±3% of the AR",significant reduction
same,HR (heart rate),[1]; [4],435 ± 11 beats per min
same,MAP (mean arterial pressure),[1]; [4],119 ± 6 mmHg
same,PRI (pressure rate index),[1]; [4],52 ± 3 mmHg/min · 10^−3
same,HR (heart rate),[1]; [5],460 ± 10 beats per min
same,MAP (mean arterial pressure),[1]; [5],118 ± 6 mmHg
same,PRI (pressure rate index),[1]; [5],55 ± 3 mmHg/min · 10^−3
same,HR (heart rate),[1]; [6],412 ± 10 beats per min
same,MAP (mean arterial pressure),[1]; [6],89 ± 8 mmHg
same,PRI (pressure rate index),[1]; [6],36 ± 3 mmHg/min · 10^−3
same,HR (heart rate),[1]; [7],414 ± 13 beats per min
same,MAP (mean arterial pressure),[1]; [7],70 ± 7 mmHg
same,PRI (pressure rate index),[1]; [7],29 ± 3 mmHg/min · 10^−3
same,fall in MAP compared with MI-rats treated with Saline,"[1]; 25 mg/kg i.v., P>0.05",similar
same,fall in PRI compared with MI-rats treated with Saline,"[1]; 25 mg/kg i.v., P>0.05",similar
same,effect on HR,"[1]; rats subjected to regional myocardial ischemia and reperfusion, P>0.05",no significant effect
same,effects of heparin induced thrombocytopenia (HIT),[2]; 500 micromolar,completely suppress
same,aggregation of platelets from HIT patients,"[2]; 500 micromolar, 0.5 U/ml heparin",completely suppress
same,Amplitude of ATP release spike (low Heparin),"[2]; Patient 1, 500 μM, 0.5 U/ml low heparin, without drug 363",14
same,Ratio of Low/High Heparin,"[2]; Patient 1, 500 μM, without drug 42.4, HIT ratio >5.0",1.9
same,Aggregation (Low Heparin),"[2]; Patient 1, 500 μM, without drug Present",Absent
same,Aggregation (Low Heparin),"[2]; Patient 1, 2 mM",Absent
same,Amplitude of ATP release spike (low Heparin),"[2]; Patient 1, 2 mM",28
same,Ratio of Low/High Heparin,"[2]; Patient 1, 2 mM",2.7
same,Ratio of Low/High Heparin,"[2]; Patient 2, 500 μM, without drug 37.6",1.6
same,Amplitude of ATP release spike (low Heparin),"[2]; Patient 2, 500 μM, without drug 286",11
same,Aggregation (Low Heparin),"[2]; Patient 2, 500 μM, without drug Present",Absent
same,Aggregation (Low Heparin),"[2]; Patient 2, 2 mM",Absent
same,Amplitude of ATP release spike (low Heparin),"[2]; Patient 2, 2 mM",12
same,Ratio of Low/High Heparin,"[2]; Patient 2, 2 mM",1.6
same,characteristic release of ATP of HIT platelets,"[2]; heparin challenge, lumi aggregometer",inhibits
